Columns and labels:
[1] = system: intracellular glutathione (GSH); settings: variety of cell types and tissues; cited from earlier work
cell monolayer = settings: Transwell model; cited from earlier work
[2] = target: T1, Na+-dependent multivitamin transporter (Homo sapiens, UniProt Q9Y289); settings: in vitro; cited from earlier work
T1 sequence (Q9Y289 1-635): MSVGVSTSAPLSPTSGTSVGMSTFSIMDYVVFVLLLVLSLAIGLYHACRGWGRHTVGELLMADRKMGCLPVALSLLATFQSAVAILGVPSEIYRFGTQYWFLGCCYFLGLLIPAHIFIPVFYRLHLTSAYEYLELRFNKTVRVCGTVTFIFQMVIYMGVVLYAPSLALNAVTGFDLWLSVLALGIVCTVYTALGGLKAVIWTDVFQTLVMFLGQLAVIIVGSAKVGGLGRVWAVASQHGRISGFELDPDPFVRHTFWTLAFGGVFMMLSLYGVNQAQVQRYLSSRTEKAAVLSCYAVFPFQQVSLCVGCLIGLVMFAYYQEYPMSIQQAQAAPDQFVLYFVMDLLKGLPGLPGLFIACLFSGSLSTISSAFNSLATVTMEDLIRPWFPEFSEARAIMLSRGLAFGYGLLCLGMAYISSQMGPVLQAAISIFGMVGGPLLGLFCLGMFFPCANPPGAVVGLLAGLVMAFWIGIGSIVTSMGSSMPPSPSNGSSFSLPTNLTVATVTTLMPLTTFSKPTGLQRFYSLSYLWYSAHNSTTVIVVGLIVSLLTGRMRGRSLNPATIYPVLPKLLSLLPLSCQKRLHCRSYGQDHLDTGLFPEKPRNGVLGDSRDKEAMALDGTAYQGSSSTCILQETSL

GERD symptoms = assay: Example 1: subject diagnosed with GERD, self-reported relief on omeprazole alone vs omeprazole plus ALA; format: in vivo, human; settings: scale of 1-10; 40 mg of omeprazole per day
Protocol: A middle aged subject diagnosed with GERD had been on the proton pump inhibitor omeprazole for approximately three years. The subject reported taking 40 mg of omeprazole per day to control symptoms of GERD. On a scale of 1-10, subject rated the effectiveness of omeprazole at 5. […] In accordance with the present disclosure, they began taking orally 20 mg of omeprazole and 400 mg of ALA on a daily basis. […] Subject rated effectives of regime of the present disclosure a 9 on a scale from 1-10. […] Additional study was undertaken to see to what extent the combination of proton pump inhibitor and ALA of the present disclosure would have on GERD and heartburn symptoms. The person was instructed to orally take 20 mg of omeprazole and 600 mg of ALA daily for 3 months. […] Other important facts were gathered from this 3-month study. The treatment regime is fast acting and generally will halt the symptoms of even the worst scenario of acid reflux in no more than 120 minutes. Continued relief is experienced for a minimum of 24 hours with no further oral intake of the combination regime. The participant reported eating regular foods with no more modified diet schemes. Foods such as pizza, spaghetti, chili, ice cream, pastrami, taco […] like, all once avoided, are now capable of being enjoyed at meal times.

heartburn and GERD = assay: Conclusions on the use of the combination regimes; format: in vivo, human; settings: Omeprazole alone

Row | Compound | effect on intracellular glutathione (GSH) [1] | transport across cell monolayer (cell monolayer) | transporter substrate status [2] | effectiveness rating by subject (GERD symptoms) | time to elimination of GERD symptoms, on the average (heartburn and GERD) [days]
1 | O=C(O)CCCCC1CCSS1 (stereo not drawn) [ALA, Alpha-Lipoic Acid] | markedly increases | rapidly traverses the cell monolayer in a pH-dependent manner | substrate | – | –
2 | COc1ccc2[nH]c([S+]([O-])Cc3ncc(C)c(OC)c3C)nc2c1 (centres unmarked) [omeprazole] | – | – | – | 5 | 2

— US11273145B2, “Compositions and methods for the treatment of acid-related gastrointestinal disorders containing a dithiolane compound and a gastric acid secretion inhibitor” (priority 2014, dated 2022)
